A short description of one data set: Solubility assay. In kind it is physicochemical. The settings on record: for solubility: PBS buffer, pH 7.2, aqueous buffer, kinetic from dmso stock, read-out: Solubility in water. As for the experimental part: Solubility assay. The solubility assay was performed according to Lipinski, C. A. et al Advances Drug Delivery Reviews 2001, 46, 3-26. Typically, a compound of the invention was dissolved in DMSO at a concentration of 10 μg/μl. The so obtained solution was added in […] at 1 min intervals to 2.5 ml PBS buffer solution pH 7.2. These additions correspond to solubility increments of 5 μg/ml to a top value of 65 μg/ml. A total of 14 additions were made and each time increased UV absorbance from light scattering was measured at 600 nm. The precipitation point was calculated from a bilinear curve fit to the Absorbance (y axis) versus μl of DMSO (x axis) plot.
The solubility of the polyene macrolides of the invention in water was tested following the above described protocol. Clearly, all conjugates were more soluble in water then AmB.

The test system of the next data set is DSY-294 C. albican CI. As to the kind of experiment: MIC determination in Candida strain DSY-294. In kind it is cell-based, Candida albicans. The settings on record: Candida albicans. The protocol:
(§1) In Vitro Antifungal Activity. MIC values for various strains were determined in accordance with the standard protocol from the National Committee of Clinical Laboratory Standards but using YEPD liquid medium instead of RPMI-1640 medium (National Committee of Clinical Laboratory Standards (Reference Method for Broth Dilution Antifungal Susceptibility Testing of Yeast, M27-A2, Approved Standard-Second Edition, Volume 22, Number 15, 1995). AmB was used as a reference. The strains were cultivated overnight in 5 mL YEPD liquid medium at 30 to 37° C. (30° C. for the strain BY4741; 37° C. for the strain DSY1764) with constant shaking. The saturated cultures were diluted to an ODB600 of 0.1 (3×10P^7 cells/mL). Using 24 wells plate, each well was prepared by adding 1% (12 μL) of DMSO solution of the tested polyene macrolide with 1% (12 μL) yeast cells solution and completed with YEPD (1.176 mL). The plates were sealed with Parafilm and then incubated for 18 to 36 hours at 30 to 37° C. (18 hours at 30° C. for the strain BY4741; 36 hours at 37° C. for the strain DSY1764). The optical density was read at 600 nm using 1.5 mL cuvettes. The MIC value was defined as the drug concentration needed to inhibit growth, less than 5% compared to a drug-free culture.
(§2) MIC values of the polyene macrolides 3, 9 and 10 (Diamine-AmB and its ester and diamide derivative, respectively) in various Candida strains including an AmB-resistant strain C. albicans (DSY1764, with the genotype erg3AΔ::hisG/erg3BΔ::hisG erg11Δ::hisG/erg11Δ::hisG-URA3-hisG) were determined.

The nature of data set [1]: K+ efflux assay, cholesterol containing vesicles. The settings on record: for K+ efflux with cholesterol-containing vesicles: high concentration, 1.0 μM (FIG. 3b,d,f,h), compared with AmB (1a); for K+ efflux with cholesterol containing vesicles: lower concentration, 0.1 μM (FIG. 3a,c,e,g). As for the experimental part:
FIG. 3. K^+ efflux from vesicles (LUVET100) prepared from […] (POPC) (solid line) or POPC with sterols (dotted line) for ergosterol and (broken line) for cholesterol caused by AmB (1a) (FIGS. 3a,b) and AmB diamine 3 (FIG. 3c,d), AmB diamine ester 9 (FIG. 3e,f) and AmB diamine amide 10 (FIG. 3g,h), added in DMSO to a suspension of vesicles to give final concentrations of 0.1 μM (FIG. 3a,c,e,g) and 1.0 μM (FIG. 3b,d,f,h).
K+ efflux assay. The K^+ efflux measurements were made following a previously described procedure (Zumbuehl, A. et al., Angew. Chem. Int. Ed. 2004, 43, 5181-5185; Zumbuehl, A. et al., Org. Lett. 2004, 6, 3683-3686). The appropriate liposome suspensions were prepared using POPC, cholesterol and ergosterol. Then the liposomes were sized by extrusion through two 400 nm, 200 nm, and finally 100 nm pore size membrane. The resultant “100 nm” unilamellar liposomes were dialyzed against 600 mL of 150 mM NaCl, 5 mM HEPES (pH 7.4) buffer. After, the suspension was diluted with 150 mM NaCl, 5 mM HEPES (pH 7.4) buffer to 1 mM overall lipid concentration (phospholipids+sterols). For each efflux measurement 10 mL of this liposome suspension was placed in a small beaker. Potentiometric measurements were performed with a 16-channel electrode monitor in magnetically stirred solutions at ambient temperature. The reference electrode was a Metrohm double junction Ag/AgCl reference electrode with 3 M KCl as reference electrolyte and 1 M LiOAc as bridge electrolyte. After recording the amphotericin-induced potassium efflux, liposomes were lysed by adding sodium cholate (172 mg). The resulting reading (taken after 0.5 h) was used to quantify the 100% K+-release.
As described hereinbefore differential interaction between ergosterol found in fungal membranes and cholesterol in mammalian cells is considered the basis for the selectivity of AmB (1a) as an antifungal agent. The preferential stabilization of ion channel formation in the membrane by ergosterol ultimately results in electrolyte leakage which can be conveniently measured by K^+ efflux from sterol containing vesicles. To assess the interaction of the polyene macrolide derivatives of the invention with sterols, derivatives 3, 9 and 10 were examined in their ability to lead to K^+ efflux from large unilamellar vesicles (LUV) prepared from POPC (1-palmitoyl-2-oleoyl-sn-glycero-3-phosphocholine) admixed with sterols, mimicking conditions in natural biomembranes (FIG. 3). At high concentration (FIG. 3b,d,f,h), all compounds rapidly induce complete K^+ efflux from vesicles containing ergosterol (dotted line). […] This differentiation between ergosterol and cholesterol is consistent with the observation of reduced hemotoxicity of 3, 9 and 10.

Another data set has as its system DSY-565 C. glabrata CI. As to the kind of experiment: MIC determination in Candida strain DSY-565. Type of data set: cell-based. The settings on record: Nakaseomyces glabratus. The protocol: as §1, §2
Where [2] appears, read: DMSO stock added to PBS buffer solution pH 7.2, precipitation point by light scattering at 600 nm.

Molecules are shown by their SMILES. In brackets after ≈: the same amount, converted by molar mass. A value given as a limit tells only on which side of the number the result lay.

By solubility is commonly meant how much of the substance goes into solution per volume. Usually MIC stands for the lowest concentration that inhibits growth of the organism. The low end stands for inhibition by little substance, the high end for a need for much substance.

`C[C@@H]1[C@H](O)[C@@H](C)/C=C/C=C/C=C/C=C/C=C/C=C/C=C/[C@H](O[C@@H]2O[C@H](C)[C@@H](O)[C@H](N(CCCN)CCCN)[C@@H]2O)CC2O[C@](O)(C[C@@H](O)C[C@@H](O)[C@H](O)CC[C@@H](O)C[C@@H](O)CC(=O)O[C@H]1C)C[C@H](O)[C@H]2C(=O)NCCN` [compound 10, 16-(N′-(2-Aminoethyl)-carboxamide)-N,N-di-(3-aminopropyl)-AmB] came in with a Solubility in water in “Solubility assay” (DMSO stock added to PBS buffer solution pH 7.2, precipitation point by light scattering at 600 nm, listed as Diamine-Amide 10) of 40 µg/mL (≈ 37 µM). For the same compound, the solubility in “Solubility assay” (setting [2]) is no more than 40 µg/mL. Moreover, in the data set “Solubility assay” (relative to AmB), the “solubility in water compared with AmB” value is “four times more soluble”. Also, the MIC in the data set with DSY-294 C. albican CI stood at 1 µM (≈ 1.08 µg/mL). In data set [1], the “K+ efflux with cholesterol-containing vesicles” value is “significantly reduced efflux” and the “K+ efflux with cholesterol containing vesicles” value was “indistinguishable from background”. In the data set with DSY-565 C. glabrata CI, this compound registered a minimum inhibitory concentration (MIC) of 0.5 µM (≈ 0.54 µg/mL).
Turning to `COC(=O)[C@H]1[C@@H]2C[C@@H](O[C@@H]3O[C@H](C)[C@@H](O)[C@H](N(CCCN)CCCN)[C@@H]3O)/C=C/C=C/C=C/C=C/C=C/C=C/C=C/[C@H](C)[C@@H](O)[C@@H](C)[C@H](C)OC(=O)C[C@H](O)C[C@H](O)CC[C@@H](O)[C@H](O)C[C@H](O)C[C@](O)(C[C@@H]1O)O2` [compound 9, N,N-Di-(3-aminopropyl)-AmB Methyl Ester], in the data set “Solubility assay” (setting [2]), the solubility was 22 µg/mL (≈ 20.9 µM). In addition, the MIC in the data set on DSY-294 C. albican CI and against DSY-565 C. glabrata CI was 0.25 µM (≈ 0.263 µg/mL) each time. For the same compound, in data set [1], the “K+ efflux with cholesterol-containing vesicles” value is “significantly reduced efflux”. In addition, in data set [1], the “K+ efflux with cholesterol containing vesicles” value is reported as “indistinguishable from background”.

Source of the values: US20090186838A1, “Amphotericin Derivatives” (Eidgenössische Technische Hochschule Zürich, priority 2006, published 2009).
